According to US8242166B2, “C(10) ethyl ester and C(10) cyclopropyl ester substituted taxanes” (Florida State University Research Foundation, Inc., priority 2008, dated 2012):
Like-named read-outs stand apart in the source and are kept apart here.

Key:
[1] = system: HT29 human tumor xenografts; assay: HT29 xenograft study e210, oral and i.v. (Example 25); conditions: for CR (complete regression) / NTR NTRa/u / NTR NTRm / PR (partial regression) / TFS (tumor-free survivor) / TR (treatment-related death): n=6; for activity in the HT29 xenograft tumor model: every four day schedule for four doses
Source text: (§1) The formulation for oral studies was an ethanol and Cremophor formulation while the formulation for compound 18365 and compound 19244 dosed i.v. was 5% ethanol and 95% Liposyn II 20%.

BxPC-3 cancer cell line = assay: MTT cytotoxicity (IC50), BxPC-3 (Oncodesign); assay type: cell-based; conditions: Homo sapiens
Protocol: BxPC-3 cancer cell line (Source ATCC) and culture medium were purchased and provided by Oncodesign (France).
Tumor cells (5,000 cells per well) were plated in 96-well flat-bottom microtitration plates (Ref 167008, Batch 083310, Nunc, Dutscher, Brumath, France) and incubated at 37° C. for 24 hours before treatment in 100 μl of drug-free RPMI 1640 medium supplemented with 10% FBS. Tumor cell lines were incubated for 72 hours with 10 concentrations of both test substances and TXT (40 to 0.07 nM using ½ step dilutions). Experiments were repeated three times, each assay being issued from quadruplicate. Control cells were treated with the vehicle alone. At the end of treatments, the cytotoxic activity was evaluated by a MTT assay. These studies were conducted at Oncodesign, France.

A375 = assay: MTT cytotoxicity (IC50), A375; assay type: cell-based; conditions: Homo sapiens, A-375
Protocol: (§2) Compound 17932 was tested in four of these cell lines, while the remaining compounds were tested in all of these cell lines. All cell lines were maintained in RPMI-1640 tissue culture medium (TCM, supplemented with antibiotics and 10% fetal bovine serum) and cultured at 37° C. in humidified air containing 5% CO2. To assess the antiproliferative effects of the test compounds, 172 μL of tumor cell suspension (1.45×10^4 cells/ml) were added to each well of a 96-well plate and incubated for 24 h at 37° C. in 5% CO2 in air to allow cells to adhere. Seven 2-fold drug dilutions in TCM/DMSO were performed in triplicate in separate 96-well plates and 28 μL was transferred to the wells containing tumor cells (200 μL final volume/0.1% DMSO). Plates were incubated for 72 h and cell viability was determined by adding 50 μL of warm TCM containing 5 mg/mL MTT (3-[4,5-dimethylthiazol-2-yl]-2,5-diphenyltetrazolium bromide) to each well and incubating for 1 h at 37° C. Plates were processed and the absorbances of the resulting solutions were measured by a plate reader at 570 nm. […] (GraphPad Prism version 4.00 for Windows). Studies were conducted by Taxolog, Inc., Tallahassee, Fla.

OVCAR4 = assay: MTT cytotoxicity (IC50), OVCAR4; assay type: cell-based; conditions: Homo sapiens, OVCAR-4, 72 h, read-out: IN Vitro IC50 (nm) OVCAR4
Protocol: as §2

SK-MEL-28 = assay: MTT cytotoxicity (IC50), SK-MEL-28; assay type: cell-based; conditions: Homo sapiens, 72 h, read-out: IN Vitro IC50 (nm) ske-mel28
Protocol: as §2

SNB-19 = assay: MTT cytotoxicity (IC50), SNB-19; assay type: cell-based; conditions: Homo sapiens, 72 h, read-out: IN Vitro IC50 (nm) SNB19
Protocol: as §2

786-0 = assay: MTT cytotoxicity (IC50), 786-0; assay type: cell-based; conditions: Homo sapiens
Protocol: as §2

MALME-3 = assay: MTT cytotoxicity (IC50), MALME-3; assay type: cell-based; conditions: Homo sapiens, 72 h, read-out: IN Vitro IC50 (nm) Malme3
Protocol: as §2

[2] = system: human A375 melanoma xenograft; assay: A375 xenograft study e209 (Example 27); conditions: 30 mg/kg iv q4d × 4; for CR (complete regression) / NTR NTRa/u / NTR NTRm / PR (partial regression) / TFS (tumor-free survivor) / TR (treatment-related death): n=6; for % TGD / Median TTE / T-C: vehicle EL
Protocol: The endpoint was a tumor volume of 2,000 mm^3 and the study was terminated on Day 56. Efficacy was assessed by tumor growth delay and the number of partial and complete regressions. Animals with a CR that persisted through Day 56 were classified as long-term tumor-free survivors (TFS).

[3] = system: HT29 human tumor xenografts; assay: HT29 xenograft study e212, oral and i.v. (Example 26); conditions: for activity in the HT29 xenograft tumor model: every four day schedule for four doses; for CR (complete regression) / NTR NTRa/u / NTR NTRm / PR (partial regression) / TFS (tumor-free survivor) / TR (treatment-related death): n=6
Source text: as §1

OVCAR5 = assay: MTT cytotoxicity (IC50), OVCAR5; assay type: cell-based; conditions: Homo sapiens, OVCAR-5, 72 h, read-out: IN Vitro IC50 (nm) OVCAR5
Protocol: as §2

HOP-18 = assay: MTT cytotoxicity (IC50), HOP-18; assay type: cell-based; conditions: Homo sapiens, 72 h, read-out: IN Vitro IC50 (nm) HOP18
Protocol: as §2

DLD-1 = assay: MTT cytotoxicity (IC50), DLD-1; assay type: cell-based; conditions: Homo sapiens
Protocol: as §2

A549 = assay: MTT cytotoxicity (IC50), A549; assay type: cell-based; conditions: Homo sapiens, 72 h, read-out: IN Vitro IC50 (nm) A549
Protocol: as §2

[4] = BXPC-3, 72 h, Exp 1, MTT, 72 hours, read-out: IC50 (nM) BxPC-3
[5] = BXPC-3, 72 h, Exp 2, MTT, 72 hours, read-out: IC50 (nM) BxPC-3
[6] = BXPC-3, 72 h, Exp 3, MTT, 72 hours, read-out: IC50 (nM) BxPC-3
[7] = BXPC-3, mean of 3 experiments, read-out: IC50 Mean ± SD (nM) BxPC-3
[8] = MTT, 72 h, read-out: IN Vitro IC50 (nm) A375
[9] = Resistance MRP9, read-out: A375 Melanoma (Table 4, quantity not named; IC50 values as Table 2)
[10] = MTT, 72 h, read-out: IN Vitro IC50 (nm) 786-0
[11] = Resistance MDR1+, read-out: 786-0 Renal (Table 4, quantity not named; IC50 values as Table 2)
[12] = MTT, 72 h, read-out: IN Vitro IC50 (nm) DLD1
[13] = Resistance MDR1+, read-out: DLD1 Colon (Table 4, quantity not named; IC50 values as Table 2)
[14] = 25 mg/kg iv q4d × 4, vehicle EL
[15] = 50 mg/kg po q4d × 4, vehicle EC

## CCC(=O)O[C@H]1C(=O)[C@@]2(C)C([C@H](OC(=O)c3ccccc3)[C@]3(O)C[C@H](OC(=O)[C@H](O)[C@@H](NC(=O)OC4CCC4)c4cccs4)C(C)=C1C3(C)C)[C@]1(OC(C)=O)CO[C@@H]1C[C@@H]2O (stereo partly drawn) [Compound 19244]
[1]; 30 mg/kg iv q4d × 4
  % TGD: 214.3%
  BW Nadir: 11.1% (16)
  MTV (n), Day 60: 36.00 (6) mm^3
  Median TTE: 60 days
  T-C: 40.91 days
  CR (complete regression): 1
  NTR NTRa/u: 0
  NTR NTRm: 0
  PR (partial regression): 5
  TFS (tumor-free survivor): 1
  TR (treatment-related death): 0
[1]; 60 mg/kg po q4d × 4
  % TGD: 214.3%
  BW Nadir: −8.5% (16)
  MTV (n), Day 60: 0.25 (6) mm^3
  Median TTE: 60 days
  T-C: 40.91 days
  CR (complete regression): 4
  NTR NTRa/u: 0
  NTR NTRm: 0
  PR (partial regression): 2
  TFS (tumor-free survivor): 4
  TR (treatment-related death): 0
[1]
  activity in the HT29 xenograft tumor model: oral and IV activity
BxPC-3 cancer cell line; [4]
  IC50: 0.53 nM
BxPC-3 cancer cell line; [5]
  IC50: 0.66 nM
BxPC-3 cancer cell line; [6]
  IC50: 1.03 nM
BxPC-3 cancer cell line; [7]
  IC50: 0.74 ± 0.26 nM
A375; [8]
  IC50: 0.6 nM
A375; [9]
  IC50: 0.5 nM
OVCAR4
  IC50: 2.7 nM
SK-MEL-28
  IC50: 2 nM
SNB-19
  IC50: 0.9 nM
786-0; [10]
  IC50: 0.9 nM
786-0; [11]
  IC50: 0.9 nM
MALME-3
  IC50: 1.1 nM
[2]
  BW Nadir: 10.4% (18)
  MTV(n), Day 56: 0.00 (6) mm^3
  CR (complete regression): 6
  NTR NTRa/u: 0
  NTR NTRm: 0
  PR (partial regression): 0
  TFS (tumor-free survivor): 6
  TR (treatment-related death): 0
  % TGD: 210.08%
  Median TTE: 56 days
  T-C: 37.94 days
[3]
  activity in the HT29 xenograft tumor model: oral and IV activity
OVCAR5
  IC50: 0.6 nM
HOP-18
  IC50: 1.5 nM
DLD-1; [12]
  IC50: 1.8 nM
DLD-1; [13]
  IC50: 1.8 nM
A549
  IC50: 0.5 nM

## CC(=O)O[C@@]12CO[C@@H]1C[C@H](O)[C@@]1(C)C(=O)[C@H](OC(=O)C3CC3)C3=C(C)[C@@H](OC(=O)[C@H](O)[C@@H](NC(=O)OC4CCC4)c4cccs4)C[C@@](O)([C@@H](OC(=O)c4ccccc4)C12)C3(C)C (stereo partly drawn) [Compound 18365]
[1]; 25 mg/kg iv q4d × 4
  % TGD: 214.3%
  BW Nadir: −7.6% (16)
  MTV (n), Day 60: 5.00 (6) mm^3
  Median TTE: 60 days
  T-C: 40.91 days
  CR (complete regression): 4
  NTR NTRa/u: 0
  NTR NTRm: 0
  PR (partial regression): 2
  TFS (tumor-free survivor): 4
  TR (treatment-related death): 0
[1]; 50 mg/kg po q4d × 4
  % TGD: 214.3%
  BW Nadir: −7.6% (16)
  MTV (n), Day 60: 8.75 (6) mm^3
  Median TTE: 60 days
  T-C: 40.91 days
  CR (complete regression): 4
  NTR NTRa/u: 0
  NTR NTRm: 0
  PR (partial regression): 2
  TFS (tumor-free survivor): 3
  TR (treatment-related death): 0
[1]
  activity in the HT29 xenograft tumor model: oral and IV activity
BxPC-3 cancer cell line; [4]
  IC50: 0.79 nM
BxPC-3 cancer cell line; [5]
  IC50: 1.07 nM
BxPC-3 cancer cell line; [6]
  IC50: 0.99 nM
BxPC-3 cancer cell line; [7]
  IC50: 0.95 ± 0.14 nM
A375; [8]
  IC50: 0.6 nM
A375; [9]
  IC50: 0.6 nM
OVCAR4
  IC50: 1.1 nM
SK-MEL-28
  IC50: 0.9 nM
SNB-19
  IC50: 1.1 nM
786-0; [10]
  IC50: 1.1 nM
786-0; [11]
  IC50: 1.1 nM
MALME-3
  IC50: 4.1 nM
[2]
  BW Nadir: −9.8% (14)
  MTV(n), Day 56: 0.00 (6) mm^3
  CR (complete regression): 5
  NTR NTRa/u: 0
  NTR NTRm: 0
  PR (partial regression): 0
  TFS (tumor-free survivor): 5
  TR (treatment-related death): 0
  % TGD: 210.08%
  Median TTE: 56 days
  T-C: 37.94 days
[3]
  activity in the HT29 xenograft tumor model: oral and IV activity
OVCAR5
  IC50: 0.3 nM
HOP-18
  IC50: 0.7 nM
DLD-1; [12]
  IC50: 1.1 nM
DLD-1; [13]
  IC50: 1.1 nM
A549
  IC50: 0.5 nM

## CCC(=O)O[C@H]1C(=O)[C@@]2(C)C([C@H](OC(=O)c3ccccc3)[C@]3(O)C[C@H](OC(=O)[C@H](O)[C@@H](NC(=O)OC4CCCC4)c4cccs4)C(C)=C1C3(C)C)[C@]1(OC(C)=O)CO[C@@H]1C[C@@H]2O (stereo partly drawn) [Compound 18926]
A375; [8]
  IC50: 0.5 nM
A375; [9]
  IC50: 0.5 nM
OVCAR4
  IC50: 1 nM
SK-MEL-28
  IC50: 0.6 nM
SNB-19
  IC50: 1 nM
786-0; [10]
  IC50: 0.7 nM
786-0; [11]
  IC50: 0.7 nM
MALME-3
  IC50: 1.8 nM
[2]
  BW Nadir: 13.3% (18)
  MTV(n), Day 56: 0.00 (6) mm^3
  CR (complete regression): 6
  NTR NTRa/u: 0
  NTR NTRm: 0
  PR (partial regression): 0
  TFS (tumor-free survivor): 6
  TR (treatment-related death): 0
  % TGD: 210.08%
  Median TTE: 56 days
  T-C: 37.94 days
[3]; 25 mg/kg iv q4d × 4
  CR (complete regression): 5
  NTR NTRa/u: 0
  NTR NTRm: 0
  PR (partial regression): 0
  TFS (tumor-free survivor): 5
  TR (treatment-related death): 1
[3]; [14]
  % TGD: 237.14%
  BW Nadir: 13.5% (17)
  MTV (n), Day 59: 0.00 (5) mm^3
  Median TTE: 59 days
  T-C: 41.5 days
[3]; 50 mg/kg po q4d × 4
  CR (complete regression): 1
  NTR NTRa/u: 0
  NTR NTRm: 0
  PR (partial regression): 5
  TFS (tumor-free survivor): 1
  TR (treatment-related death): 0
[3]; [15]
  % TGD: 237.14%
  BW Nadir: 10.4% (17)
  MTV (n), Day 59: 20.25 (6) mm^3
  Median TTE: 59 days
  T-C: 41.5 days
OVCAR5
  IC50: 0.2 nM
HOP-18
  IC50: 1.6 nM
DLD-1; [12]
  IC50: 0.8 nM
DLD-1; [13]
  IC50: 0.8 nM
A549
  IC50: 0.4 nM
